# Paper PMC4106721, “Structure of a Membrane-Embedded Prenyltransferase Homologous to UBIAD1” (PLoS Biology, 2014)
# What was measured:
# Assay in all cases: isothermal titration calorimetry
# Format in all cases: binding
# [1] = target: T1, AfUbiA (Archaeoglobus fulgidus, UniProt O28625, R22A); details: 2 mM MgCl2, pH 7.5, 25 °C, 4 mM DM
# T1 construct: gene AF_1648; full gene in modified pET vector, N-terminal His-tag removed with TEV protease, expressed in E. coli BL21(DE3), DM-solubilised for ITC or in lipidic cubic phase for crystals; likely monomer
# T1 sequence (O28625 entry or part of it R22A): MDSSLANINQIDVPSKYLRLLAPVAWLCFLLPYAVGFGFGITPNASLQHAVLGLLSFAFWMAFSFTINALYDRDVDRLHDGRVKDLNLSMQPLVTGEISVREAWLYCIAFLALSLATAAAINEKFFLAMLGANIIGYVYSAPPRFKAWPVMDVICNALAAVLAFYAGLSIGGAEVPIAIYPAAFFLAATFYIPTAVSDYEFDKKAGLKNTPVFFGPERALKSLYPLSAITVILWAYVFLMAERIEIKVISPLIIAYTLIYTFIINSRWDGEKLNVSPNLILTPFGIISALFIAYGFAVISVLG
# [2] = target: T2, AfUbiA (Archaeoglobus fulgidus, UniProt O28625, D202A)
# T2 construct: gene AF_1648; full gene in modified pET vector, N-terminal His-tag removed with TEV protease, expressed in E. coli BL21(DE3), DM-solubilised for ITC or in lipidic cubic phase for crystals; likely monomer
# T2 sequence (O28625 entry or part of it D202A): as the sequence (O28625 entry or part of it R22A) above, with A22R, D202A counted along it
# [3] = target: T3, AfUbiA (Archaeoglobus fulgidus, UniProt O28625)
# T3 construct: gene AF_1648; full gene in modified pET vector, N-terminal His-tag removed with TEV protease, expressed in E. coli BL21(DE3), DM-solubilised for ITC or in lipidic cubic phase for crystals; likely monomer
# T3 sequence (O28625 1-303): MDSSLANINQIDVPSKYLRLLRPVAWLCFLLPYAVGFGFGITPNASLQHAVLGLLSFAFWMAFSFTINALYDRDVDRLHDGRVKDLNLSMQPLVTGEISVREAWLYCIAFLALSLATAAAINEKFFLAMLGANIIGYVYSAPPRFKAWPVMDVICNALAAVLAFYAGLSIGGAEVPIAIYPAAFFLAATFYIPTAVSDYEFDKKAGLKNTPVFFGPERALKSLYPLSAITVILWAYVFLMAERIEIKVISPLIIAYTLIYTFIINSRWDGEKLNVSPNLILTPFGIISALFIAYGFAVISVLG
# [4] = target: T4, AfUbiA (Archaeoglobus fulgidus, UniProt O28625, N68A); details: 2 mM MgCl2, pH 7.5, 25 °C, 4 mM DM
# T4 construct: gene AF_1648; full gene in modified pET vector, N-terminal His-tag removed with TEV protease, expressed in E. coli BL21(DE3), DM-solubilised for ITC or in lipidic cubic phase for crystals; likely monomer
# T4 sequence (O28625 entry or part of it N68A): as the sequence (O28625 entry or part of it R22A) above, with A22R, N68A counted along it
# [5] = target: T5, AfUbiA (Archaeoglobus fulgidus, UniProt O28625, D198A)
# T5 construct: gene AF_1648; full gene in modified pET vector, N-terminal His-tag removed with TEV protease, expressed in E. coli BL21(DE3), DM-solubilised for ITC or in lipidic cubic phase for crystals; likely monomer
# T5 sequence (O28625 entry or part of it D198A): as the sequence (O28625 entry or part of it R22A) above, with A22R, D198A counted along it
# [6] = target: T6, AfUbiA (Archaeoglobus fulgidus, UniProt O28625, D72A); details: 2 mM MgCl2, pH 7.5, 25 °C, 4 mM DM
# T6 construct: gene AF_1648; full gene in modified pET vector, N-terminal His-tag removed with TEV protease, expressed in E. coli BL21(DE3), DM-solubilised for ITC or in lipidic cubic phase for crystals; likely monomer
# T6 sequence (O28625 entry or part of it D72A): as the sequence (O28625 entry or part of it R22A) above, with A22R, D72A counted along it
# [7] = target: T7, AfUbiA (Archaeoglobus fulgidus, UniProt O28625, K146A); details: 2 mM MgCl2, pH 7.5, 25 °C, 4 mM DM
# T7 construct: gene AF_1648; full gene in modified pET vector, N-terminal His-tag removed with TEV protease, expressed in E. coli BL21(DE3), DM-solubilised for ITC or in lipidic cubic phase for crystals; likely monomer
# T7 sequence (O28625 entry or part of it K146A): as the sequence (O28625 entry or part of it R22A) above, with A22R, K146A counted along it
structure (smiles),measurement,setting,value
CC(C)=CCC/C(C)=C/COP(=O)(O)OP(=O)(O)O [geranyl diphosphate],no binding detected (N.D.),[1],Four of the mutations completely abolished GPP binding
same,Kd,[2],67 ± 9 µM
same,Kd,[3],3.2 ± 0.1 µM
same,no binding detected (N.D.),[4],Four of the mutations completely abolished GPP binding
same,Kd,[5],144 ± 13 µM
same,no binding detected (N.D.),[6],Four of the mutations completely abolished GPP binding
same,no binding detected (N.D.),[7],Four of the mutations completely abolished GPP binding
